The text below walks through data of patent US4728650A, “3,4-dihydrobenzopyran derivatives and medicinal uses thereof” (Kuraray Co., Ltd., priority 1985, dated 1988).

The ED50 is the dose at which the effect has come halfway, by size or by number of responders. Read a high ED50 as a need for a large dose. A word on the inhibition in vivo: it is the relative decrease from the control value, in per cent. A higher inhibition in vivo goes with strong suppression. The LD50 is the dose at which mortality reaches 50%. Lower therefore signals a more toxic substance.

The structures appear in SMILES notation. Structures can show the parent of a compound that is named as a salt.

A short description of data set [1]: Expectorant action: tracheal secretion of fluorescein sodium in rats. In kind it is in vivo, Wistar rats (male). The settings on record: 50 mg/kg oral. The method, then:
Male Wistar rats (body weights, 280-320 g) were used in groups of 7 animals. Each test compound was orally administered in dose of 50 mg/kg body weight to rats. Immediately after administration, 0.3 ml/100 g (body weight of rat) of a 1% aqueous solution of fluorescein sodium was injected into the caudal vein. One hour after administration of the test compound, pentobarbital sodium 100 mg/kg (body weight of rat) was injected intraperitoneally so that deep anesthesia might cause the rat to die. Then, the trachea was exposed and an incision was made in the trachea. A sonde was inserted thereinto and ligation was made. To the sonde was connected a syringe containing 10 ml of a 5% solution of sodium hydrogen carbonate kept at 37° C. and 4 ml of the solution of sodium hydrogen carbonate was injected into the lung. After 5 minutes, the fluid in the lung was removed. After this procedure of injection and removal was repeated three times, the fluid removed from the lung was filtered and the filtrate was made up with water to make 20 ml. The intensity of fluroescence was determined at the excitation wave length of 491 nm and the fluorescence wave length of 510 nm using a spectrophotometer (HITACHI model 650-10, Hitachi, Ltd.). The amount of fluorescein sodium secreted into the trachea was estimated from the intensity of fluorescence. Each test compound was administered as suspended in a gum arabic solution in concentration of 5%.

Data set [2] can be described thus: Antitussive action: coughing induced by tracheal stimulation in guinea pigs. In kind it is in vivo. The settings on record: Cavia porcellus, ip; Table 17; intraperitoneal; up and down method. As for the experimental part:
Pentobarbital sodium 15 mg/kg was injected intraperitoneally to guinea pigs (body weight, 400 g or more) and under slight anesthesia, each guinea pig was immobilized in dorsal position. The skin in the anterior cervical region was incised along the midline and the trachea was exposed so as not to injure the subcutaneous tissue. A small hole was drilled in the anterior aspect of the trachea at a location 1.5 cm distant from the clavicle and through this hole a stimulating hair was inserted over a distance of 3 cm at an angle of 30° from the longitudinal axis of the trachea and, after one second, was pulled out. The stimulation was given 5 and 20 minutes after drilling of the small hole, and after occurrence of coughing was confirmed, each test compound was injected intraperitoneally. At 5 time points, i.e. 15, 30, 60, 90 and 120 minutes after injection, it was checked whether stimulation caused coughing in the same manner as described above. If coughing was not induced, even only once on the five occasions of stimulation, the test compound was regarded as effective, and if cough appeared on all the 5 occasions of stimulation,the test compound was regarded as ineffective. The ED50 value (mg/kg) was determined by the up and down method using 10 guinea pigs [See K. A. Brownlee et al., J. Am. Stat. Assoc. 48, 262 (1953)]. As a stimulating hair, one porcine bristle, about 5 cm long, was used.
After completion of the study, the skin and wound opening of each guinea pig were fully disinfected with acrinol solution and the skin was sutured. Then, the guniea pigs were maintained as usual. The guinea pigs were not vigorous on the day following the test, with body weights decreased, but recovered after one week. After the lapse of 10 days or more, the animals were resubmitted to the test.

A short description of data set [3]: Hydrochloric acid-ethanol-induced ulcer in rats. Format: in vivo, Wistar rats (male). As for the experimental part: Male Wistar rats (body weights, 170-210 g) were used in groups of 6 to 8 animals. Indomethacin, 20 mg/kg body weight, was injected subcutaneously to rats which had been deprived of food for 24 hours. After 7 hours, the stomach was excised under ether anesthesia. A 10% aqueous solution of formaldehyde was infused into the stomach until the stomach was inflated and, then, the stomach was immersed in a 10% aqueous solution of formaldehyde for 10 minutes for fixation of the tissue. After fixation, an incision was made along the greater curvature and the length of ulcers occurring in the glandular portion of the stomach was measured. The total length of ulcers occurring in a rat was taken as an ulcer index. Each test compound was orally administered, as suspended in a gum arabic solution in concentration of 5%, to rats 10 minutes before subcutaneous injection of indomethacin. Male Wistar rats (body weights, 160-190 g) were used in groups of 6 to 8 animals. One milliliter of a 60% aqueous solution of ethanol containing 150 mM hydrochloric acid was administered orally to rats which had been deprived of food for 24 hours. After one hour, the stomach was excised under ether anesthesia. In a manner similar to that described in study for indomethacin-induced ulcer, the ulcer index was determined. Each test compound was orally administered, as suspended in a gum arabic solution in concentration of 5%, to rats 1 hour before administration of hydrochloric acid-ethanol.

A short description of data set [4]: Pyloric ligation-induced ulcer (Shay ulcer) in rats. Format: in vivo, Wistar rats (male). As to conditions: Table 2, 50 mg/kg i.d. The method, then: Male Wistar rats (body weights, 180-200 g) were used in groups of 7 animals. After 48-hour fasting, laparotomy was performed under ether anesthesia and the pylorus was ligated with a suture. After 13 hours, the stomach was isolated under ether anesthesia and gastric juice was collected. The gastric juice was centrifuged at 3,000 r.p.m. for 10 minutes and the volume and pH value of gastric juice were determined. The pH value was determined by using pH paper. After collection of gastric juice, a 10% aqueous solution of formaldehyde was infused into the stomach until the stomach was inflated. Then, the stomach was immersed in a 10% aqueous solution of formaldehyde for 10 minutes for fixation of the tissue. After fixation, an incision was made along the greater curvature for observing ulcers which had developed in the glandular portion of the stomach. The degree of ulcer was classified according to the following ulcer index scale.
2: 1-5 small ulcers (<3 mm in diameter)
3: Six or more small ulcers or one large ulcer (>3 mm in diameter)
4: Two or more large ulcers
Each test compound was administered, as suspended in a gum arabic solution in concentration of 5%, into the duodenum immediately after pyloric ligation.

A short description of data set [5]: Indomethacin-induced ulcer in rats. In kind it is in vivo, Wistar rats (male). As to conditions: Table 3, 50 mg/kg p.o. The method, then:
Male Wistar rats (body weights, 170-210 g) were used in groups of 6 to 8 animals. Indomethacin, 20 mg/kg body weight, was injected subcutaneously to rats which had been deprived of food for 24 hours. After 7 hours, the stomach was excised under ether anesthesia. A 10% aqueous solution of formaldehyde was infused into the stomach until the stomach was inflated and, then, the stomach was immersed in a 10% aqueous solution of formaldehyde for 10 minutes for fixation of the tissue. After fixation, an incision was made along the greater curvature and the length of ulcers occurring in the glandular portion of the stomach was measured. The total length of ulcers occurring in a rat was taken as an ulcer index. Each test compound was orally administered, as suspended in a gum arabic solution in concentration of 5%, to rats 10 minutes before subcutaneous injection of indomethacin. The doses of test compounds and the ulcer indices for treated and untreated rats are shown in Table 3 for purposes of comparison. The % inhibition of ulcer by each test compound as estimated from the ulcer index is also presented in the same table.

A short description of data set [6]: Stress ulcer (water immersion stress) in mice. Format: in vivo, mice (ddK strain, male). The settings on record: Table 1, 25 mg/kg p.o. As for the experimental part:
Male mice of ddK strain (body weights, 18-20 g) were placed in a stress cage in groups of 6 animals and immersed down to the level of the xiphoid process in a water bath at 22±1° C. to give a stress. Five hours later the mice were raised from the water bath and the stomach was removed under ether anesthesia. Into the stomach was infused 1.2 ml of a 10% aqueous solution of formaldehyde and, then, the stomach was immersed in a 10% aqueous solution of formaldehyde for 10 minutes for fixation of the tissue. After fixation, an incision was made along the greater curvature for observing ulcers which had appeared in the glandular portion of the stomach. The degree of ulceration was classified according to the following ulcer index scale and the % inhibition of ulcer was estimated.
2: Hemorrhage and erosion
3: Severe hemorrhage and erosion
Each test compound was orally administered, as suspended in a gum arabic solution in concentration of 5%, to mice 10 minutes before stress loading.

Data set [7] can be described thus: Acute toxicity in mice, oral. Set-up: species or system ddK strain). The settings on record: mouse, in vivo, male ddK mice, 10 animals per group. The method, then: The 3,4-dihydrobenzopyran compound [I] has been confirmed to be low in toxicity. […] The corresponding values of Compounds (2) to (11) were respectively more than 2,000 mg/kg, and those of compounds (12) to (36) were all more than 3,500 mg/kg.

On to `COc1ccc(C(=O)N2CCN(CCC3(C)CCc4c(C)c(OC)c(C)c(C)c4O3)CC2)cc1` (stereo not drawn) [Compound (19), 1-[2-(3,4-Dihydro-6-methoxy-2,5,7,8-tetramethyl-2H-benzopyran-2-yl)ethyl]-4-(4-methoxybenzoyl)piperazine], for which the “Secretory amount (mean ± S.E.)” value in data set [1] (Table 13, control 5.30 ± 0.40) is recorded as 8.12 ± 0.58 μg/100 g (body weight of rat)/. The compound further registered an ED50 in data set [2] of 50.1 mg/kg.

On to `COc1cc(C(=O)N2CCN(CCC3(C)CCc4c(C)c(OC)c(C)c(C)c4O3)CC2)cc(OC)c1OC` (stereo not drawn) [Compound (17), 3,4-Dihydro-6-methoxy-2-[2-[4-(3,4,5-trimethoxybenzoyl)piperazin-1-yl]ethyl]-2,5,7,8-tetramethyl-2H-benzopyran], for which the “Secretory amount (mean ± S.E.)” value in data set [1] (Table 13, control 5.30 ± 0.40) is 7.90 ± 0.72 μg/100 g (body weight of rat)/; in data set [1] (Table 15, control 5.20 ± 0.78), 9.44 ± 1.14 μg/100 g (body weight of rat)/. Also, the 50% effect level in data set [2] (ED50) was put at a dose of 113 mg/kg. In addition, the inhibition in vivo at 50 mg/kg in data set [3] (Rattus norvegicus, po, 1 h, Table 9, 50 mg/kg p.o.) amounted to 65.7%. Besides, the “Ulcer index (mean ± S.E.)” value in data set [3] (Table 9, 50 mg/kg p.o., control 7.22 ± 0.36) came to 2.48 ± 0.68 mm.

Take `COc1c(C)c(C)c2c(c1C)CCC(C)(CC(=O)NC(=N)N)O2` (stereo not drawn) [Compound (1), N-(3,4-Dihydro-6-methoxy-2,5,7,8-tetramethyl-2H-benzopyran-2-yl)acetylguanidine]: the “pH value of gastric juice” value in data set [4] (control 1.77 ± 0.54) is 2.07 ± 0.94. In addition, the “Volume of gastric juice” value in data set [4] (control 5.09 ± 0.40) was determined as 3.36 ± 0.90 ml/100 g body weight. Moreover, the “Ulcer index (mean ± S.E.)” value turned out to be 2.33 ± 0.42 in data set [4] (scale 0-5, control 3.86 ± 0.40); 2.30 ± 0.58 mm in data set [5] (control 10.36 ± 2.07); 1.00 ± 0.63 mm in data set [6] (control 2.63 ± 0.18); 0.39 ± 0.19 mm in data set [3] (Table 4, 50 mg/kg p.o., control 7.36 ± 1.23). Moreover, the “% Inhibition of ulcer” value in data set [5] was determined as 77.80%; in data set [6], 61.98%. In data set [7], this compound displayed an LD50 of 3560 mg/kg. Moreover, 25 mg/kg produced 91.1% inhibition in vivo in data set [3] (Rattus norvegicus, po, 1 h, Table 7, 25 mg/kg p.o.).

In the case of `CCOC(CN1CCN(CC(C)C(=O)c2ccccc2)CC1)c1ccccc1` (stereo not drawn) [Eprazinone hydrochloride, 3-[4-(β-ethoxyphenethyl)-1-piperadinyl]-2-methylpropiophenone hydrochloride, reference compound], the “Secretory amount (mean ± S.E.)” value in data set [1] (Table 13, control 5.30 ± 0.40) is reported as 5.26 ± 0.40 μg/100 g (body weight of rat)/; in data set [1] (Table 14, control 1.60 ± 0.18), 2.67 ± 0.18 μg/100 g (body weight of rat)/; in data set [1] (Table 16, control 6.455 ± 0.766) it was 5.736 ± 0.369 μg/100 g (body weight of rat)/. This compound registered an ED50 in data set [2] of 122 mg/kg.
